Assays:
[1] = tested on: M2-10B4 mouse marrow stromal cell line; assay: Matrix mineralization in M2 cells (von Kossa staining, 45Ca incorporation assay); assay type: cell-based
Description: Cells: M2-10B4 mouse marrow stromal cell line obtained from American Type Culture Collection (ATCC, Rockville, Md., U.S.A.) was derived from bone marrow stromal cells of a (C57BL/6J×C3H/HeJ) F1 mouse, and support human and murine myelopoiesis in long-term cultures (as per ATCC) and have the ability to differentiate into osteoblastic and adipocytic cells. Unless specified, these cells were cultured in RPMI 1640 containing 10% heat-inactivated FBS, and supplemented with 1 mM sodium pyruvate, 100 U/ml penicillin, and 100 […] (all from Irvine Scientific).
Von Kossa and oil red O staining—Matrix mineralization in cell monolayers was detected by silver nitrate staining as previously described. Oil red O staining for detection of adipocytes was performed as previously described.
^45Ca incorporation assay—Matrix mineralization in cell monolayers was quantified using the ^45Ca incorporation assay as previously described.
M2 cells at confluence were treated in osteogenic medium with control vehicle or 5 μM oxysterols, alone or in combination as indicated. After 14 days, mineralization was identified by a von Kossa staining, which appears black. FIG. 3C is a depiction of von Kossa staining of M2 cells exposed to various conditions.
M2 cells were treated with control vehicle (C) or a combination of 22R and 20S oxysterols at increasing concentrations. After 14 days, matrix mineralization in cultures was quantified using a ^45Ca incorporation assay. […] FIG. 3D is a bar graph depicting the effect of a combination of oxysterols at various doses on calcium incorporation in M2 cells.
Next, a combination of 22R and 20S oxysterols (RS, 2.5 μM each) were added in the presence or absence of SC as indicated. After 3 days, ALP activity was measured as described earlier. […] (B) M2 cells were treated as described in (A) and after 10 days matrix mineralization in cultures was quantified by a ^45Ca incorporation assay as described earlier. Results from a representative of three experiments are shown, reported as the mean±SD of quadruplicate determinations, normalized to protein concentration. (C) M2 cells were pretreated with 20 μM SC for 4 hours, followed by the addition of RS in the presence or absence of SC as described above. After 8 days, total RNA was isolated and analyzed for osteocalcin (Osc) and 18S rRNA expression by Northern blotting as previously described. Data from densitometric analysis of the Northern blot is shown in (D) as the average of duplicate samples, normalized to 18S rRNA. (E) M2 cells at confluence were pretreated for 2 hours with control vehicle (C), or PLA2 inhibitors ACA (25 μM) and AACOCF3 (AAC, 20 μM), in osteogenic medium. Next, a combination of 22R and 20S oxysterols (RS, 2.5 μM) was added in the presence or absence of the inhibitors as indicated. After 3 days, ALP activity was measured as previously described. Data from a representative of three experiments are shown, reported as the mean±SD of quadruplicate determinations, normalized to protein concentration (p<0.01 for RS vs. RS+ACA and RS+AAC). (F) M2 cells were treated as described in (E). After 10 days, matrix minerliazation in cultures was quantified using a ^45Ca incorporation assay as previously described. Results from a representative of three experiments are shown, reported as the mean of quadruplicate determinations±SD, normalized to protein concentration (p<0.01 for RS vs. RS+ACA and RS+AAC).
(A) M2 cells at confluence were pretreated for four hours with RPMI containing 1% FBS, followed by treatment with control vehicle or 5 μM 20S oxysterol for 1, 4, or 8 hours. Next total cell extracts were prepared and analyzed for levels of native or phosphorylated ERK (pERK) using specific antibodies as previously described.

osteocalcin mRNA = assay: Northern blot for osteocalcin mRNA in M2 cells; assay type: cell-based, mouse
Description: RNA isolation and Northern blot analysis—Following treatment of cells under appropriate experimental conditions, total RNA was isolated using the RNA isolation kit from Stratagene (La Jolla, Calif., U.S.A.). Total RNA ([…]) was run on a 1% agarose/formaldehyde gel and transferred to Duralon-UV membranes (Strategene, Calif., U.S.A.) and cross-linked with UV light. The membranes were hybridized overnight at 60 degree C. with ^32P-labeled mouse osteocalcin cDNA probe, mouse lipoprotein lipase (LPL), mouse adipocyte protein 2 (aP2) PCR-generated probes, human 28S or 18S rRNA probes obtained from Geneka Biotechnology (Montreal, Quebec, Canada) and Maxim Biotech (San Francisco, Calif., U.S.A.), respectively. […] Following hybridization, the blots were washed twice at room temperature with 2×SSC+0.1% SDS, and then twice at 60 degree C. with 0.5×SSC+0.1% SDS, and exposed to X-ray film. The extent of gene induction was determined by densitometry.
After 4 and 8 days, total RNA from duplicate samples was isolated and analyzed for osteocalcin (Osc) and 28S rRNA expression by Northern blotting as described. FIG. 3E is a radiogram of Northern blotting for osteocalcin mRNA in M2 cells exposed to a control or combination of oxysterols for 4 or 8 days. FIG. 3F is a bar graph depicting the relative demsometric units of osteocalcin mRNA in M2 cells exposed to a control or combination of oxysterols for 4 or 8 days. Data from densitometric analysis of the Northern blot is shown in (F) as the average of duplicate samples, normalized to 28S rRNA.
Next, a combination of 22R and 20S oxysterols (RS, 2.5 μM each) were added in the presence or absence of SC as indicated. After 3 days, ALP activity was measured as described earlier. […] (B) M2 cells were treated as described in (A) and after 10 days matrix mineralization in cultures was quantified by a ^45Ca incorporation assay as described earlier. Results from a representative of three experiments are shown, reported as the mean±SD of quadruplicate determinations, normalized to protein concentration. (C) M2 cells were pretreated with 20 μM SC for 4 hours, followed by the addition of RS in the presence or absence of SC as described above. After 8 days, total RNA was isolated and analyzed for osteocalcin (Osc) and 18S rRNA expression by Northern blotting as previously described. Data from densitometric analysis of the Northern blot is shown in (D) as the average of duplicate samples, normalized to 18S rRNA. (E) M2 cells at confluence were pretreated for 2 hours with control vehicle (C), or PLA2 inhibitors ACA (25 μM) and AACOCF3 (AAC, 20 μM), in osteogenic medium. […] After 3 days, ALP activity was measured as previously described. […]

[2] = individual oxysterols 0.5-10 μM or combinations, up to 14 days
[3] = individual oxysterols 0.5-10 μM up to 14 days, combinations 5 μM each, 4 and 8 days

Structure (SMILES)	induction of mineralization [1, 2]	induction of osteocalcin gene expression (osteocalcin mRNA; [3])	induction of mineralization ([1]; TO treatment, after 10 days)	induction of osteocalcin gene expression (osteocalcin mRNA; TO treatment, after 10 days)
CC(C)CC[C@@H](O)[C@@H](C)[C@H]1CC[C@H]2[C@@H]3CC=C4C[C@@H](O)CC[C@]4(C)[C@H]3CC[C@]12C [22R, 22(R)-hydroxycholesterol]	unable to induce	unable to induce	–	–
CC(C)CC[C@H](O)[C@@H](C)[C@H]1CC[C@H]2[C@@H]3CC=C4C[C@@H](O)CC[C@]4(C)[C@H]3CC[C@]12C [22S, 22(S)-hydroxycholesterol]	unable to induce	unable to induce	–	–
O=S(=O)(c1ccccc1)N(CC(F)(F)F)c1ccc(C(O)(C(F)(F)F)C(F)(F)F)cc1 [TO, TO-901317]	–	–	did not induce	did not induce
CC(C)CCC[C@](C)(O)[C@H]1CC[C@H]2[C@@H]3CC=C4C[C@@H](O)CC[C@]4(C)[C@H]3CC[C@@]21C [20S, 20(S)-hydroxycholesterol]	unable to induce	unable to induce	–	–
